{"source": "paper PMC8511024", "about": "“In silico and multi-spectroscopic analyses on the interaction of 5-amino-8-hydroxyquinoline and bovine serum albumin as a potential anticancer agent” (Scientific Reports, 2021)", "key": {"[1]": {"biological_target": "T1, bovine serum albumin (BSA) (Bos taurus, UniProt P02769)", "T1 construct": "bovine serum albumin (BSA), a representative of serum protein; purchased Sigma-Aldrich Co. LLC", "T1 sequence (P02769 25-607)": "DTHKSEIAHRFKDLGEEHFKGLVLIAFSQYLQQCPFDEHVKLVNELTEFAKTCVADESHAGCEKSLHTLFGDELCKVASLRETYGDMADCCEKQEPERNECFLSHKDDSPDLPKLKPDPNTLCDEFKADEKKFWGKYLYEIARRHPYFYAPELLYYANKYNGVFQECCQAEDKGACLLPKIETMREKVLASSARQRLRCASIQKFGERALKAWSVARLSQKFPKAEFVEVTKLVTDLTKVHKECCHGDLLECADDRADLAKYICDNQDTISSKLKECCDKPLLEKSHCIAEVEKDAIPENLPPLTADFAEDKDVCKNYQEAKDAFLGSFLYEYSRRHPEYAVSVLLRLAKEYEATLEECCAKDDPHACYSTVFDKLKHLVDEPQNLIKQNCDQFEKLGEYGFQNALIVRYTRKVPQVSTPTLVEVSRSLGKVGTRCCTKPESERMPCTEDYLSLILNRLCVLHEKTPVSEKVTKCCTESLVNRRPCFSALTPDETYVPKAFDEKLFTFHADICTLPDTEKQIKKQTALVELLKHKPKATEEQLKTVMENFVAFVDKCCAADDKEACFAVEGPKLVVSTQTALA", "test": "Site probe competitive (site marker displacement) analysis", "format": "binding", "conditions": "310 K; for Kd: Binding constant KA, BSA 4 µM", "from_the_text": "Serum albumin can bind and transport various molecules since its structure assembles many binding pockets. Site I and site II are well-defined binding pockets located in hydrophobic regions of subdomains IIA and IIIA, respectively, which primarily bind aromatic and heterocyclic compounds. Site III is found on the hydrophilic region of subdomain IB to serve as a binding pocket for numerous compounds e.g., bilirubin, hemin, and sulfonamide derivatives. In addition, seven binding sites for fatty acids are discovered on subdomains IB, IIIA, and IIIB, and at the interface between subdomains. Herein, site-probe displacement study was employed to determine the preferred binding site on BSA of 5A8HQ using warfarin, ibuprofen, and digitoxin as competitive probes for sites I, II, and III, respectively. Binding constant of 5A8HQ to BSA was determined during equilibration with each site marker (Table 4).\nBSA (4 µM) was equilibrated with various concentrations of 5A8HQ (0, 5, 10, 30, 50, 70, 90, 110, 130, 150, and 170 µM) for 10 min at the different temperatures (290, 300, and 310 K). Later, fluorescence spectra in a range of 285–450 nm were measured with 280 nm excitation using a temperature-controlled QuantaMaster™ 40 spectrofluorometer (Photon Technology International, Inc., Ontario, Canada). Site marker displacement analyses were achieved as the abovementioned, but an equimolar concentration of […] was added to BSA prior challenging with various 5A8HQ concentrations at physiological temperature (310 K). Inner filter effect (IFE) becaused by the excitation and emission beam attenuations by sample might produce nonlinearity artifact on the measured fluorescent signal, so IFE was routinely eradicated by the following equation[55].9 Fcor=Fobs×e^(A^ex-A^em)/2 where Fobs and Fcor are the measured and corrected fluorescence intensities, respectively. A^ex and A^em are the absorbance values at excitation and emission wavelengths being measured. The IFE corrected fluorescence signals were served for estimations of all pertinent parameters, such as quenching constant, binding constant, and thermodynamics parameters, if not otherwise stated."}, "[2]": {"biological_target": "T1, bovine serum albumin (BSA)", "test": "Fluorescence quenching of BSA (Stern–Volmer, Hill and Van't Hoff analyses)", "format": "binding", "conditions": "for Stern–Volmer constant Ksv: BSA 4 µM, 5A8HQ 0–170 µM; for Quenching rate constant kq: lifetime of 1 × 10^−8 s assumed", "from_the_text": "Quenching of intrinsic protein fluorescence can be triggered by either static or dynamic process. In some circumstances, both processes can concurrently provoke fluorescence quenching known as a combined quenching mechanism. Static and dynamic quenching processes obey a linear model of the Stern–Volmer equation (Eq. 1), which can be approximately differentiated by scrutinizing the Stern–Volmer constant ( Ksv ) at different temperatures. Positive relationship of Ksv with temperature indicates dynamic quenching process, while negative association infers static process. Dynamic quenching occurs via collisional encountering among protein and ligand. Increasing temperature enlarges ligand motion to hit protein and quench its fluorescence at the excited state, resulting in increasing Ksv . Static quenching is contrary to the dynamic one. It is arisen by the complexation of protein and ligand, in which rising temperature tends to disfavor binding event and lessen Ksv value. Combined quenching process influences both ground-state and excited state of protein fluorescence, which usually deviates the linearity of classical Stern–Volmer plot to downward or upward curvature[42].1 F0/F=1+KsvQ=1+kqτ0Q F0 and F are the steady-state fluorescence intensities of fluorophore (BSA) in the absence and the presence of quencher (5A8HQ), respectively. Q refers to the molar concentration of quencher. Ksv is Stern–Volmer constant. kq and τ0 are biomolecular quenching rate constant and fluorescence lifetime of the fluorophore without quencher, respectively.\nFluorescence quenching and thermodynamic analyses were performed at three different temperatures including 310, 300, and 290 K to imitate physiological, ambient, and hypothermic conditions, respectively. The 5A8HQ quenched fluorescence emission of BSA in a concentration dependent manner and almost reached saturation at 5A8HQ concentration above 130 µM (Fig. 3A). The Stern–Volmer plots behaved in a positive linear trend, indicating a single process of BSA fluorescence quenching by 5A8HQ (Fig. 3B).\nIn addition, quenching process could be roughly verified by determining the quenching rate constant of the interaction (Eq. (1)), in which the quenching rate constant at 2 × 10^10 M^−1 s^−1 is usually employed as a maximum cutoff for diffusion collision quenching of various quenchers. The fluorescence lifetime of excited state can be measured using a lifetime spectrofluorometer. However, in case of inaccessible to such instrument like this study, a lifetime of 1 × 10^−8 s is generally assumed for the calculation of quenching rate constant. Accordingly, the quenching rate constant of BSA‒5A8HQ interaction at each temperature was approximated to be 10^12 M^−1 s^−1 (Table 2), which was 100 times higher than that of the typical collisional quenching process (2 × 10^10 M^−1 s^−1). […] Thereby, the binding constants of complexation were elucidated using Hill’s plot.\nVarious non-covalent interactions play an important role in the binding of ligand to protein including hydrogen bonding, van der Waals force, electrostatic, and hydrophobic interactions. Therefore, complex formation between BSA and 5A8HQ was further explored to determine principal interaction forces and binding affinity. Nonlinear Hill’s equation (Eq. (2)) was applied on the fluorescence dataset of BSA–5A8HQ complex to obtain binding constant ( KA ) and Hill coefficient constant ( n ), which fundamentally infer affinity and cooperativity of the binding, respectively (Fig. 4A).\n2 F0-F/F0=KA[Q]^n/1+KA[Q]^n F0 , F , and Q stand for the same annotations as the aforementioned in Eq. (1). Hill’s equation can be transformed to linear form as an expression of Eq. (3), which is often applied in many studies.3 logF0-F/F=logKA+nlogQ KA is similar to KSV in terms of binding constant, but in different aspects of interaction behavior. KA implies a degree of affinity at static process, while KSV rather reflects dynamic behavior among protein and ligand[16]. […]"}, "[3]": {"biological_target": "T1, bovine serum albumin (BSA)", "test": "Fluorescence resonance energy transfer (FRET) between BSA and 5A8HQ", "format": "binding", "from_the_text": "Besides microenvironmental changes around its fluorophore, quenching of BSA fluorescence may also be provoked by fluorescence resonance energy transfer (FRET) process, in which the excited Trp and/or Tyr transfer their energy to the quencher (5A8HQ) via dipole–dipole interaction. However, the FRET phenomenon is strictly dependent on the degree of overlapping between emission spectrum of fluorophore and absorption spectrum of quencher. Also, fluorophore and quencher must be in proximity (2–8 nm) to each other and their transition dipoles must align in parallel orientation. FRET is a useful method to study molecular distance among molecules that can provide guidance on whether ligand binds with protein at proximity to the Trp fluorophore. The distance ( r ) between quencher and fluorophore can be calculated by Eq. (6).6 E=1-F/F0=R06/[…] E stands for the efficiency of fluorescence resonance energy transfer. F0 and F are fluorescence intensities of BSA in the absence and presence of 5A8HQ, respectively. R0 is the Förster distance, where half of the excitation energy is transferred to the acceptor. R0 can be obtained by Eqs. (7) and (8) as follows:7 R0=0.211k^2∅DJ/n^4^1/6 8 J=∫0∞Fλελλ^4dλ/∫0∞Fλdλ where k^2 is the orientation factor of the dipoles, which can range between 0 and 4. ∅D and n denote the fluorescence quantum yield of donor without quencher and the refractive index of the medium, respectively. J is an overlapping between the donor fluorescence spectrum and the quencher absorption spectrum. Fλ and ελ mean fluorescence intensity of the donor and molar absorption coefficient of the acceptor at the λ wavelength.\nR0 was determined on the assumption that ∅D and n were 0.15 and 1.336, respectively. However, Förster distance depends greatly on orientation between donor’s and acceptor’s dipoles. k^2 value of 0.667 is generally assumed for dynamic dipole orientation, where dipoles are randomly oriented because of their rotational diffusion. […] Based on these two assumptions of dipole orientation, R0 were calculated to be 2.37 and 2.50 nm, which subsequently yielded the Trp to 5A8HQ distances ( r ) at 3.01 and 3.18 nm for static and dynamic dipole orientations, respectively."}, "[4]": {"biological_target": "T1, bovine serum albumin (BSA)", "test": "Circular dichroism spectroscopy of BSA secondary structure", "conditions": "BSA 4 µM, 310 K, without 5A8HQ 66.17%", "from_the_text": "Structural alteration of the BSA when interacting with 5A8HQ was further elucidated by a CD spectroscopy, which is a useful technique for analyzing the secondary structure of macromolecules. BSA structure is dominantly composed of α-helix (~ 67%), represented by two prominent negative bands at 208 (π–π* transition) and 222 (n–π* transition) nm, and a positive band at 192 nm (π–π* transition)[54]. […] This finding is in well agreement with other observations, especially thermodynamic parameters, molecular docking, and molecular dynamics simulations, which implied that BSA tends to transform its native conformation for ground-state complexation with 5A8HQ. Hydrogen bonding and electrostatic networks of the complex might reallocate hydrogen bonding of α-helix structure as indicated by a slight decrease in CD spectral bands.\nCD measurement was performed to determine a secondary conformational alteration of BSA under 5A8HQ exposure using a Jasco J-815 spectropolarimeter (JASCO International Co. Ltd., Tokyo, Japan). BSA (4 µM) was incubated with 5A8HQ (5 and 50 µM) in a 1 mm path length cuvette at 310 K under constantly flushed with nitrogen. The spectra were recorded in a range of 200–260 nm at an interval of 1 nm with a 60 nm/min scanning rate."}, "[5]": {"conditions": "read-out: Antioxidant activity IC50; cited from earlier work"}, "BSA": {"system": "BSA", "set-up": "method as in PMID 30865872", "conditions": "cited from earlier work"}}, "data": [{"smiles": "Nc1ccc(O)c2ncccc12", "note": "[5A8HQ, 5-Amino-8-hydroxyquinoline]", "values": [{"measurement": "Kd", "setting": "[1]; with digitoxin (site III marker) 4 µM", "value": 47.6, "unit": "µM"}, {"measurement": "Kd", "setting": "[1]; with ibuprofen (site II marker) 4 µM", "value": 47.8, "unit": "µM"}, {"measurement": "Kd", "setting": "[1]; with warfarin (site I marker) 4 µM", "value": 47.1, "unit": "µM"}, {"measurement": "Kd", "setting": "[1]; without site marker", "value": 83.7, "unit": "µM"}, {"measurement": "Number of binding site n", "setting": "[1]; with digitoxin 4 µM", "value": "1 ± 0"}, {"measurement": "Number of binding site n", "setting": "[1]; with ibuprofen 4 µM", "value": "1 ± 0"}, {"measurement": "Number of binding site n", "setting": "[1]; with warfarin 4 µM", "value": "1 ± 0"}, {"measurement": "Number of binding site n", "setting": "[1]; without site marker", "value": "1 ± 0"}, {"measurement": "Hill coefficient constant n", "setting": "[2]; 290 K", "value": "1 ± 0"}, {"measurement": "Stern–Volmer constant Ksv", "setting": "[2]; 290 K", "value": "2.773 ± 0.071 × 10^4 M^−1"}, {"measurement": "Quenching rate constant kq", "setting": "[2]; 290 K", "value": "2.773 ± 0.071 × 10^12 (M^−1 s^−1)"}, {"measurement": "Hill coefficient constant n", "setting": "[2]; 300 K", "value": "1 ± 0"}, {"measurement": "Stern–Volmer constant Ksv", "setting": "[2]; 300 K", "value": "1.303 ± 0.043 × 10^4 M^−1"}, {"measurement": "Quenching rate constant kq", "setting": "[2]; 300 K", "value": "1.303 ± 0.043 × 10^12 (M^−1 s^−1)"}, {"measurement": "Hill coefficient constant n", "setting": "[2]; 310 K", "value": "1 ± 0"}, {"measurement": "Stern–Volmer constant Ksv", "setting": "[2]; 310 K", "value": "1.173 ± 0.032 × 10^4 M^−1"}, {"measurement": "Quenching rate constant kq", "setting": "[2]; 310 K", "value": "1.173 ± 0.032 × 10^12 (M^−1 s^−1)"}, {"measurement": "Kd", "setting": "[2]; Binding constant KA, 290 K, Hill's equation", "value": 40, "unit": "µM"}, {"measurement": "Kd", "setting": "[2]; Binding constant KA, 300 K, Hill's equation", "value": 58.6, "unit": "µM"}, {"measurement": "Kd", "setting": "[2]; Binding constant KA, 310 K, Hill's equation", "value": 83.7, "unit": "µM"}, {"measurement": "Kd", "setting": "[2]; Binding constant of BSA‒5A8HQ interaction (order of magnitude), 290–310 K", "value": 100, "unit": "µM"}, {"measurement": "Quenching rate constant (order of magnitude)", "setting": "[2]; at each temperature, lifetime 1 × 10^−8 s assumed", "value": "~10^12 M^−1 s^−1"}, {"measurement": "Integral spectral overlap J", "setting": "[3]; BSA 4 µM fluorescence, 5A8HQ 5 µM absorption", "value": "9.55 × 10^13 M^−1 cm^−1 nm^4"}, {"measurement": "Trp to 5A8HQ distance r", "setting": "[3]; dynamic dipole orientation", "value": 3.18, "unit": "nm"}, {"measurement": "Förster distance R0", "setting": "[3]; dynamic dipole orientation, k^2 0.667", "value": 2.50, "unit": "nm"}, {"measurement": "Trp to 5A8HQ distance r", "setting": "[3]; static dipole orientation", "value": 3.01, "unit": "nm"}, {"measurement": "Förster distance R0", "setting": "[3]; static dipole orientation, k^2 0.475", "value": 2.37, "unit": "nm"}, {"measurement": "α-helix content of BSA", "setting": "[4]; 5A8HQ 5 µM", "value": 64.96, "unit": "%"}, {"measurement": "α-helix content of BSA", "setting": "[4]; 5A8HQ 50 µM", "value": 63.65, "unit": "%"}, {"measurement": "IC50", "setting": "[5]", "value": 8.71, "unit": "µM"}]}, {"smiles": "Oc1c(I)cc(Cl)c2cccnc12", "note": "[clioquinol, 5-chloro-7-iodo-8-hydroxyquinoline]", "values": [{"measurement": "Binding constant KA", "setting": "BSA", "value": "10^8 M^−1"}]}, {"smiles": "Cc1c(C)c2c(c(C)c1O)CC[C@@](C)(CCC[C@H](C)CCC[C@H](C)CCCC(C)C)O2", "note": "[α-tocopherol, reference compound]", "values": [{"measurement": "IC50", "setting": "[5]", "value": 13.5, "unit": "µM"}]}]}
